In brackets after ≈: the same amount, converted by molar mass.
Key:
H37Rv = assay: microbe, parasite or virus in culture; format: cell-based; settings: Mycobacterium tuberculosis, read-out: MIC
Mtb H37Rv = format: cell-based, M. tuberculosis
[1] = tested on: mixed mmpL3 mutant pool (24 unique Mtb mmpL3 mutants); format: cell-based, M. tuberculosis
H37Rv (rpoB S450L) = format: cell-based, M. tuberculosis
WT Mtb Erdman = format: cell-based, M. tuberculosis; settings: area under the dose-response curve
Erdman (mmpR5 E21K) = format: cell-based, M. tuberculosis
H37Rv (gyrA D94K) = format: cell-based, M. tuberculosis
Mtb = settings: cited from earlier work

Row | SMILES | MIC (H37Rv) [µg/mL] | Frequency of resistance, 2 × MIC (Mtb H37Rv) | Frequency of resistance, 8 × MIC (Mtb H37Rv) | Frequency of resistance, 16 × MIC (Mtb H37Rv) | Mixed mmpL3 AUC [1] | MIC, H37Rv (rpoB S450L) (H37Rv (rpoB S450L)) [µM] | activity (MIC) against the rpoB S450L strain (H37Rv (rpoB S450L)) [µg/mL] | WT AUC (WT Mtb Erdman) | EC50 (Erdman (mmpR5 E21K)) [nM] | MIC, H37Rv (gyrA D94K) (H37Rv (gyrA D94K)) [µM] | in vitro frequency of resistance (FoR) (Mtb)
1 | CC1COc2c(N3CCN(C)CC3)c(F)cc3c(=O)c(C(=O)O)cn1c23 (centres unmarked) [Ofloxacin] | 1 (≈ 2.77 µM) | 5.36 × 10^−7 | 7.14 × 10^−8 | 3.57 × 10^−8 | – | – | – | – | – | – | –
2 | Cc1cc2nc(SCC(=O)N(C(C)C)C(C)C)[nH]c2cc1C [MSU-42766] | 0.5 (≈ 1.57 µM) | 1.36 × 10^−6 | 8.0 × 10^−8 | 0 | 73.44 | 0.8 (≈ 0.256 µg/mL) | 0.25 | 169.9 | 1800 | 1.5 (≈ 0.479 µg/mL) | –
3 | COc1c(N2C[C@@H]3CCCN[C@@H]3C2)c(F)cc2c(=O)c(C(=O)O)cn(C3CC3)c12 [Moxifloxacin] | – | – | – | – | – | 0.15 (≈ 0.0602 µg/mL) | – | – | – | >5.0 | –
4 | CO[C@H]1/C=C/O[C@@]2(C)Oc3c(C)c(O)c4c(O)c(c(/C=N/N5CCN(C)CC5)c(O)c4c3C2=O)NC(=O)/C(C)=C\C=C\[C@H](C)[C@H](O)[C@@H](C)[C@@H](O)[C@@H](C)[C@H](OC(C)=O)[C@@H]1C [Rifampicin] | 0.5 (≈ 0.608 µM) | 5.36 × 10^−7 | 7.14 × 10^−8 | 3.57 × 10^−8 | – | – | – | – | – | – | –
5 | CC(C)N(C(=O)COc1nc2cc(Cl)c(Cl)cc2[nH]1)C(C)C [MSU-43170] | – | – | – | – | 160.3 | – | – | 247.5 | – | – | –
6 | COc1nc2ccc(Br)cc2cc1[C@@H](c1ccccc1)[C@@](O)(CCN(C)C)c1cccc2ccccc12 [Bedaquiline] | 2 (≈ 3.6 µM) | 1.43 × 10^−7 | 3.57 × 10^−8 | 3.57 × 10^−8 | – | – | – | – | 910 | – | –
7 | CC(C)N(C(=O)CNc1nc2cc(Cl)c(Cl)cc2[nH]1)C(C)C [MSU-43165] | – | – | – | – | 147.2 | – | – | 214.5 | – | – | –
8 | NNC(=O)c1ccncc1 [Isoniazid] | 0.125 (≈ 0.911 µM) | 5.0 × 10^−6 | 3.93 × 10^−6 | 2.71 × 10^−6 | – | 0.4 (≈ 0.0549 µg/mL) | – | – | – | 0.2 (≈ 0.0274 µg/mL) | 10^−6
9 | CC(C)/N=c1\cc2n(-c3ccc(Cl)cc3)c3ccccc3nc-2cc1Nc1ccc(Cl)cc1 [Clofazimine] | – | – | – | – | – | – | – | – | 1600 | – | –
10 | O=[N+]([O-])c1cn2c(n1)OC[C@@H](OCc1ccc(OC(F)(F)F)cc1)C2 [Pretomanid] | 0.5 (≈ 1.39 µM) | 1.79 × 10^−6 | 8.57 × 10^−7 | 1.43 × 10^−7 | – | – | – | – | – | – | –
11 | CC[C@@H](CO)NCCN[C@@H](CC)CO [Ethambutol] | 1 (≈ 4.89 µM) | 3.61 × 10^−6 | 8.57 × 10^−7 | 1.79 × 10^−8 | – | – | – | – | – | – | –
12 | Cc1ccc2nc(SCC(=O)N(C(C)C)C(C)C)[nH]c2c1 [HC2183] | – | – | – | – | 34.08 | – | – | 101.7 | – | – | –

Source: article PMC10783087 (Microbiology Spectrum, 2023)
